The record followed here is patent US20070249548A1, “Nucleoside Analog or Salts of the Same” (GIFU UNIVERSITY, priority 2004, published 2007).

[TBDPS-acyc] = code of the source, not defined here; d = 2'-deoxy (DNA)

This data set concerns oligonucleotide made from sequence number 2. Nature of the data set: Stability of the double strand (Tm value). The class given is physicochemical. As to conditions: double strand with oligonucleotide of sequence number 2; annealing buffer 10 mM sodium phosphate (pH 7.0), 1 M NaCl.

Turning to “Comparative Example 2: Double-stranded oligonucleotide composed of the oligonucleotides made from sequence number 3 and sequence number 2 (chain 1 AAGGAAAAGAGGAAAGA; chain 2 TCTTTCCTCTTTTCCTT; DNA, backbone not given here)”, the Tm value stood at 57.7 °C.
As to “Example 10: Double-stranded oligonucleotide analog composed of the oligonucleotide analog of sequence number 1 and the oligonucleotide of sequence number 2 (chain 1 AAGGAAAAGAGGAAAGA; chain 2 TCTTTCCTCTTTTCCTT; chain 1: sugars from the 5' end d7 [TBDPS-acyc]1 d9, backbone not given here; chain 2: DNA, backbone not given here)”, the Tm value was found to be 49.1 °C.
